Source: US20070172957A1, “Methods of identifying anti-inflammatory macrolides” (TAISHO PHARMACEUTICAL CO., LTD., priority 2004, published 2007)

Test system: genes predictive for the anti-inflammatory macrolide effect
Assay: Genes statistically predictive of Clari response: differentially expressed with Clari but not the inactive macrolides MAA or Josa (Appendix E)
Format: cell-based
Text: In the case of the above-mentioned (i) related to arachidonic acid biosynthesis, specifically, methods of the embodiment involve assaying whether a test macrolide alters biosynthesis of arachidonic acid, alters the expression or activities of enzymes involved in the biosynthesis or activation of arachidonic acid (e.g., arachidonic acid CoA synthetase, delta-6 desaturase, fatty acid elongase, and delta-5 desaturase, AA-related genes in Tables 2 and 3), or alters the expression of genes identified as predictive for the anti-inflammatory macrolide effect (Appendix E). Assays in which arachidonic acid or gene expression or enzymatic activity is detected can be carried out after contacting a cell with a test macrolide. Any cell line that secretes prostaglandin or produces arachidonic acid can be used. Epithelial and macrophages lines (e.g., A549 or THP-1) are suitable for this purpose; other cell lines can be identified by carrying out assays such as those described in the specific Examples, below. Alternatively, screening assays can be carried out after adding a test macrolide to an in vitro cell system (e.g., a cellular extract or liver microsome preparation) or an in vitro enzyme assay system.

SMILES: CO[C@@H]1[C@@H](O[C@@H]2O[C@H](C)[C@@H](O[C@H]3C[C@@](C)(O)[C@@H](OC(=O)CC(C)C)[C@H](C)O3)[C@H](N(C)C)[C@H]2O)[C@@H](CC=O)C[C@@H](C)[C@@H](O)/C=C/C=C/C[C@@H](C)OC(=O)C[C@H]1OC(C)=O [josamycin]
- group mean, gene BCKDK (SpotID 47949, MAA and Josa vs. Clari): 1.07
- group mean, gene DNASE1L1 (SpotID 47950, MAA and Josa vs. Clari): 0.96
- mean group, DNASE1L1 (SpotID 47950, pooled group mean): 0.96
- group mean, gene COX15 (SpotID 47951, MAA and Josa vs. Clari): 1.05
- mean group, USF2 (SpotID 47973, pooled group mean): 0.96
- group mean, gene THBS1 (SpotID 47987, MAA and Josa vs. Clari): 1.02
- mean group, THBS1 (SpotID 47987, pooled group mean): 1.02
- mean group, RPN2 (SpotID 47988, pooled group mean): 0.93
- group mean, gene PTGER1 (SpotID 47995, MAA and Josa vs. Clari): 1.00
- group mean, gene CTSH (SpotID 48000, MAA and Josa vs. Clari): 0.93
- mean group, CUTL1 (SpotID 48004, pooled group mean): 1.22
- group mean, gene BCL2L2 (SpotID 48006, MAA and Josa vs. Clari): 0.86
- mean group, SRF (SpotID 48026, pooled group mean): 0.94
- group mean, gene SCN1B (SpotID 48121, MAA and Josa vs. Clari): 0.90
- mean group, FRDA (SpotID 48137, pooled group mean): 1.03
- group mean, gene SFRS7 (SpotID 48149, MAA and Josa vs. Clari): 0.98
- mean group, SFRS7 (SpotID 48149, pooled group mean): 0.98
- group mean, gene ZAP3 (SpotID 48160, MAA and Josa vs. Clari): 1.08
- mean group, ZAP3 (SpotID 48160, pooled group mean): 1.08
- group mean, gene SNAPC1 (SpotID 48182, MAA and Josa vs. Clari): 1.00
- group mean, gene OPA1 (SpotID 48192, MAA and Josa vs. Clari): 1.02
- group mean, gene BAT8 (SpotID 48214, MAA and Josa vs. Clari): 1.02
- group mean, gene MAPK12 (SpotID 48233, MAA and Josa vs. Clari): 0.88
- mean group, MAPK12 (SpotID 48233, pooled group mean): 0.88
- group mean, gene DAXX (SpotID 48235, MAA and Josa vs. Clari): 1.02
- group mean, gene GRB2 (SpotID 48266, MAA and Josa vs. Clari): 0.93
- mean group, GRB2 (SpotID 48266, pooled group mean): 0.93
- group mean, gene ARHC (SpotID 48280, MAA and Josa vs. Clari): 0.90
- group mean, gene GCN5L1 (SpotID 48301, MAA and Josa vs. Clari): 0.93
- mean group, GCN5L1 (SpotID 48301, pooled group mean): 0.93
- group mean, gene FN1 (SpotID 48328, MAA and Josa vs. Clari): 1.00
- group mean, gene DNMT1 (SpotID 48333, MAA and Josa vs. Clari): 0.97
- mean group, CCT3 (SpotID 48345, pooled group mean): 0.97
- group mean, gene FN1 (SpotID 48348, MAA and Josa vs. Clari): 1.00
- group mean, gene CNOT2 (SpotID 48363, MAA and Josa vs. Clari): 1.03
- group mean, gene MAPK9 (SpotID 48365, MAA and Josa vs. Clari): 1.04
- mean group, MAPK9 (SpotID 48365, pooled group mean): 1.04
- group mean, gene CNOT2 (SpotID 48396, MAA and Josa vs. Clari): 1.04
- group mean, gene HIF1A (SpotID 48397, MAA and Josa vs. Clari): 1.09
- group mean, gene MGEA5 (SpotID 48411, MAA and Josa vs. Clari): 0.97
- mean group, MGEA5 (SpotID 48411, pooled group mean): 0.97
- group mean, gene SERPINB1 (SpotID 48415, MAA and Josa vs. Clari): 1.02
- mean group, SERPINB1 (SpotID 48415, pooled group mean): 1.02
- group mean, gene M6PR (SpotID 48451, MAA and Josa vs. Clari): 0.97
- group mean, gene DDC (SpotID 48456, MAA and Josa vs. Clari): 1.12
- mean group, DDC (SpotID 48456, pooled group mean): 1.12
- mean group, BARD1 (SpotID 48461, pooled group mean): 0.98
- group mean, gene MCM5 (SpotID 48470, MAA and Josa vs. Clari): 0.97
- group mean, gene RBM3 (SpotID 48471, MAA and Josa vs. Clari): 1.06
- mean group, SpotID 48486 (SpotID 48486 (gene symbol not given), pooled group mean): 1.21
- group mean, gene RPL13A (SpotID 48500, MAA and Josa vs. Clari): 1.05
- mean group, RPL13A (SpotID 48500, pooled group mean): 1.05
- group mean, gene USP24 (SpotID 48508, MAA and Josa vs. Clari): 1.03
- group mean, gene ARAF1 (SpotID 48521, MAA and Josa vs. Clari): 1.12
- mean group, ARAF1 (SpotID 48521, pooled group mean): 1.12
- group mean, gene APLP2 (SpotID 48530, MAA and Josa vs. Clari): 0.95
- mean group, APLP2 (SpotID 48530, pooled group mean): 0.95
- mean group, NFE2L1 (SpotID 48557, pooled group mean): 0.97
- mean group, XBP1 (SpotID 48620, pooled group mean): 0.98
- group mean, gene DIP2 (SpotID 48643, MAA and Josa vs. Clari): 1.00
- group mean, gene KIAA0323 (SpotID 48644, MAA and Josa vs. Clari): 1.01
- group mean, gene SDCBP (SpotID 48646, MAA and Josa vs. Clari): 0.97
- mean group, SDCBP (SpotID 48646, pooled group mean): 0.97
- mean group, FECH (SpotID 48654, pooled group mean): 1.05
- group mean, gene CHK (SpotID 48672, MAA and Josa vs. Clari): 0.87
- group mean, gene HSPBP1 (SpotID 48693, MAA and Josa vs. Clari): 1.04
- mean group, HSPBP1 (SpotID 48693, pooled group mean): 1.04
- group mean, gene SIGIRR (SpotID 48705, MAA and Josa vs. Clari): 0.97
- group mean, gene P4HA1 (SpotID 48707, MAA and Josa vs. Clari): 0.97
- mean group, P4HA1 (SpotID 48707, pooled group mean): 0.97
- group mean, gene MKNK2 (SpotID 48713, MAA and Josa vs. Clari): 0.96
- mean group, PPP3CB (SpotID 48717, pooled group mean): 1.09
- group mean, gene IKKE (SpotID 48725, MAA and Josa vs. Clari): 0.84
- mean group, IKKE (SpotID 48725, pooled group mean): 0.84
- mean group, RALA (SpotID 48732, pooled group mean): 0.98
- mean group, MAFB (SpotID 48747, pooled group mean): 1.14
- group mean, gene KIAA0217 (SpotID 48804, MAA and Josa vs. Clari): 1.01
- mean group, KIAA0217 (SpotID 48804, pooled group mean): 1.01
